# Test results: patent US20070264355A1, “BINARY COMPOSITIONS AND METHODS FOR STERILIZATION” (Binary, LLC, priority 2005, published 2007)
# Where “and” joins values, the source holds several entries; their conditions need not be identical. Equal values may be shown once.
# Experiments:
# [1] = test system: Bacillus subtilis (ATCC 19659) spores; assay: Microbicidal activity against Bacillus subtilis spores (suspension test, surviving CFU); assay type: cell-based
# From the text: (§1) Each solution was used alone for the individual controls. Organism suspensions were used to achieve a final target concentration of 2-3×10^6 CFU per ml. For the binary system treatments, sodium hypochlorite solution and hydrogen peroxide solution, non-acidified or acidified, were sequentially added to the microorganisms. Acidified hydrogen peroxide solution was obtained by the addition of 1.0% v/v of 0.001 N hydrochloride solution. After each addition, the resulting mixture was allowed to remain in contact with the organisms for a set amount of time at room temperature (about 22° C.), as listed in the Tables 1 and 2. At the end of the treatment time, the mixtures were neutralized with 200 to 500 microliters of thiosulfate solution (2.4%) to quench the activity of sodium hypochlorite and then treated with 100 to 200 microliters of a 1% catalase solution, containing a minimum of 100 units/ul, to quench the hydrogen peroxide activity. If needed, an appropriate volume of sterile saline was added to bring the final volume of reaction mixture to 1.4 ml after neutralization. Serial dilution plate counts were performed from the contents of each vial in sterile saline and inoculated onto TSA for quantitative culture. Plates were then incubated at 37° C. and counts taken at 24 hours.
# Suspensions of Bacillus subtilis (ATCC 19659) containing 100% spores, as confirmed by microscopy, were obtained by washing the spun-down cells with 50% ethanol to eliminate the vegetative form. Starting inoculum of approximately 1-3×10^6 CFU was used as in Example 1.
# […] The binary system was neutralized 30 minutes after addition of hydrogen peroxide using 2.4% thiosulfate and 1% catalase as described in Example 1.
# [2] = test system: Escherichia coli (ATCC 25922); assay: Microbicidal activity against Escherichia coli (suspension test, surviving CFU); assay type: cell-based; settings: inoculum 1630000 CFU
# From the text: as §1, with “hours. […]” for “hours.”
# [3] = NaOCl 0.07 mM 60 min, inoculum 1120000 CFU
# [4] = NaOCl 0.07 mM 60 min, inoculum 1865000 CFU
# [5] = NaOCl 0.07 mM 120 min, inoculum 1865000 CFU
# [6] = NaOCl 0.7 mM 60 min, inoculum 1500000 CFU
# [7] = NaOCl 0.71 mM 60 min, inoculum 1120000 CFU
# [8] = NaOCl 0.71 mM 60 min, inoculum 1865000 CFU
# [9] = NaOCl 0.71 mM 120 min, inoculum 1865000 CFU
# [10] = NaOCl 3.5 mM 60 min, inoculum 1500000 CFU
# [11] = NaOCl 7.0 mM 60 min, inoculum 1500000 CFU
# [12] = NaOCl 7.05 mM 60 min, inoculum 1120000 CFU
# [13] = NaOCl 7.05 mM 60 min, inoculum 1865000 CFU
# [14] = NaOCl 7.05 mM 120 min, inoculum 1865000 CFU
# [15] = NaOCl 70.53 mM 60 min, inoculum 1865000 CFU
# [16] = NaOCl 70.53 mM 120 min, inoculum 1865000 CFU
# [17] = NaOCl 705.27 mM 60 min, inoculum 1865000 CFU
# [18] = NaOCl 705.27 mM 120 min, inoculum 1865000 CFU
compound,measurement,setting,value
"[Na+].[O-]Cl [NaOCl, sodium hypochlorite]",Log 10 (CFU + 1) Survivors,[1]; [3],6.2
same,Total Viability (CFU),[1]; [3],1666000 CFU
same,Log 10 (CFU + 1) Survivors,[1]; [4],6.3
same,Log Reduction,[1]; [4],−0.1
same,Total Viability (CFU),[1]; [4],2142000 CFU
same,Log 10 (CFU + 1) Survivors,[1]; [5],6.3
same,Log Reduction,[1]; [5],0.0
same,Total Viability (CFU),[1]; [5],1834000 CFU
same,Log 10 (CFU + 1) Survivors,[1]; [6],3.5
same,Log Reduction,[1]; [6],2.7 and 2.66
same,Total Viability (CFU),[1]; [6],3304 CFU
same,Log 10 (CFU + 1) Survivors,[1]; [7],3.5
same,Total Viability (CFU),[1]; [7],2898 CFU
same,Log 10 (CFU + 1) Survivors,[1]; [8],4.2
same,Log Reduction,[1]; [8],2.1
same,Total Viability (CFU),[1]; [8],14840 CFU
same,Log 10 (CFU + 1) Survivors,[1]; [9],3.2
same,Log Reduction,[1]; [9],3.1
same,Total Viability (CFU),[1]; [9],1526 CFU
same,Log 10 (CFU + 1) Survivors,[1]; [10],2.7
same,Log Reduction,[1]; [10],3.4 and 3.44
same,Total Viability (CFU),[1]; [10],546 CFU
same,Log 10 (CFU + 1) Survivors,[1]; [11],1.3
same,Log Reduction,[1]; [11],4.9 and 4.87
same,Total Viability (CFU),[1]; [11],20 CFU
same,Log 10 (CFU + 1) Survivors,[1]; [12],1.3
same,Total Viability (CFU),[1]; [12],17 CFU
same,Log 10 (CFU + 1) Survivors,[1]; [13],1.6
same,Log Reduction,[1]; [13],4.6
same,Total Viability (CFU),[1]; [13],43 CFU
same,Log 10 (CFU + 1) Survivors,[1]; [14],0.0
same,Log Reduction,[1]; [14],6.3
same,Total Viability (CFU),[1]; [14],0 CFU
same,Log 10 (CFU + 1) Survivors,[1]; [15],0.0
same,Log Reduction,[1]; [15],6.3
same,Total Viability (CFU),[1]; [15],0 CFU
same,Log 10 (CFU + 1) Survivors,[1]; [16],0.0
same,Log Reduction,[1]; [16],6.3
same,Total Viability (CFU),[1]; [16],0 CFU
same,Log 10 (CFU + 1) Survivors,[1]; [17],0.0
same,Log Reduction,[1]; [17],6.3
same,Total Viability (CFU),[1]; [17],0 CFU
same,Log 10 (CFU + 1) Survivors,[1]; [18],0.0
same,Log Reduction,[1]; [18],6.3
same,Total Viability (CFU),[1]; [18],0 CFU
same,microbicidal activity (kill of inoculum),"[1]; sodium hypochlorite from 70 mM to 0.07 mM, 60 minutes of exposure, 6.3 log10 CFU inoculum",partial kill
same,Log 10 (CFU + 1) Survivors,[2]; NaOCl 0.01 mM 15 min,6.1
same,Total Viability (CFU),[2]; NaOCl 0.01 mM 15 min,1218000 CFU
same,Log 10 (CFU + 1) Survivors,[2]; NaOCl 0.02 mM 15 min,5.9
same,Total Viability (CFU),[2]; NaOCl 0.02 mM 15 min,784000 CFU
same,Log 10 (CFU + 1) Survivors,[2]; NaOCl 0.03 mM 15 min,3.0
same,Total Viability (CFU),[2]; NaOCl 0.03 mM 15 min,994 CFU
